PMC6222787, “Anti-Inflammatory Activities of Compounds Isolated from the Rhizome of Anemarrhena asphodeloides” (Molecules : A Journal of Synthetic Chemistry and Natural …, 2018)
Several values for one entry are separate records, joined by “and”; a condition that tells them apart may be missing. Identical values can stand only once. Like-named read-outs stand apart in the source and are kept apart here.

Legend:
[1] = tested on: LPS-induced NO production in N9 microglial cells; assay: LPS-induced NO production (Griess assay); type: cell-based, mouse; details: for Nitrite: control 4.60, LPS group 31.81 μM; for Nitrite / inhibition at 25 µM / inhibition at 50 µM / % Inhibition of NO Production: mean ± S.E.M.; for inhibition at 25 µM / inhibition at 50 µM: N9, 24 h; for % Inhibition of NO Production: 50 µM
Protocol: Figure 2 Inhibitory effects of TBIII (A) and t-HL (B) in LPS-stimulated N9 microglial cells. Cells were pretreated with different concentrations of TBIII and t-HL 1 h prior to the addition of LPS (100 ng/mL) and were further incubated for 24 h. NO production was determined by using the Griess reagent. IC50 values and curve fitting were determined using Graphpad Prism (GraphPad, Avenida, CA, USA).
Accumulation of nitrite, a metabolite of NO in the culture media, was measured by Griess assay as previously reported. Briefly, cells were stimulated with 100 ng/mL of LPS for 24 h in the presence of the test compounds (0–50 μM).

in vitro = details: mouse, % Cell Viability
Protocol: (§6) The N9 microglial cell line was obtained from China Cell Line Bank. The cells were grown at 37 °C in IMDM supplemented with 10% heat-inactivated FBS under a humidified atmosphere of 5% CO2. In this experiment, cells were allowed to acclimate for 24 h before treatments.
(§7) Cell viability was evaluated by the MTT reduction assay [36]. Cells were seeded in 96-well plates at a density of 2 × 10^4 cells/well and allowed to grow for 24 h before treatments. Thereafter, 100 μL medium containing various concentrations (0–50 μM) of compounds were added and incubated for another 24 h. MTT was dissolved in DD water (5 mg/mL) and 10 μL were added to each well. After 4 h, the medium was removed and 100 μL DMSO were filled in each well. The optical density was measured at 490 nm on a Flexstation 3 (Molecular Devices, Silicon Valley, CA, USA).

Akt = assay: LPS-induced activation of Akt (Western blot); type: cell-based, mouse; details: pretreated 1 h, LPS 100 ng/mL
Protocol: (§1) Figure 6 Effect of TBIII and t-HL on LPS-induced activation of Akt (A,C) and NF-κB (B,D) in N9 cells. Cells were treated with different concentrations of TBIII and t-HL for 1 h prior to stimulation with LPS (100 ng/mL). Nuclear and cytoplasmic proteins were obtained and analyzed by western blot. PAR (10 μM) was used as a positive control. The data shown represent the mean ± S.E.M of three independent experiments. * p < 0.05, ** p < 0.01, *** p < 0.001 versus the LPS-treated group; ^# p < 0.05, ^## p < 0.01, ^### p < 0.001 versus the control group.
(§2) N9 cells were plated into 12-well plates (4 × 10^5 cells/well) and pretreated with different concentrations of TBIII and t-HL for 1 h, then stimulated by 100 ng/mL of LPS for 24 h. Nuclear and cytoplasmic proteins were obtained with nuclear and cytoplasmic protein extraction kit (Beyotime Biotechnology, Shanghai, China) according to the manufacturer′s protocol. Proteins were collected by SDS-PAGE Sample Loading Buffer (Yeasen, Shanghai, China) and heated at 99 °C for 10 min. Proteins in sample loading buffer were separated on 10% sodium dodecyl sulfate (SDS)-polyacrylamide gel electrophoresis (PAGE) and followed by transferring to nitrocellulose membranes (Whatman Protran, Dassel, Germany). […] The immunoreactive bands were quantified using the NIH Image J software (NIH, Bethesda, MD, USA).

IL-6 [2] = assay: LPS-induced IL-6 mRNA expression (real-time PCR); type: cell-based, mouse; details: pretreated 1 h, LPS 100 ng/mL 4 h, dose-dependent
Protocol: (§3) Figure 4 Effects of TBIII (A) and t-HL (B) on LPS-induced mRNA expression of pro-inflammatory cytokines in N9 microglial cells. Cells were treated with different concentrations of TBIII and t-HL for 1 h and then stimulated with LPS (100 ng/mL) for 4 h. TNF-α and IL-6 mRNA levels were determined by real-time PCR analysis. […] The data were obtained from three independent experiments and expressed as the means ± […] < 0.001 versus the LPS-treated group; ^### p < 0.001 versus the control group. Total RNA was extracted from cells using Trizol reagent (Invitrogen, Carlsbad, CA, USA). Reverse transcription of RNA was performed with the Reverse Transcription System […] kit (Promega, Madison, WI, USA) according to the manufacturer's protocol. The complementary DNA (cDNA) was subsequently subjected to Real-Time PCR to quantify the transcripts of TNF-α and IL-6 using SYBR® Green Real-time PCR Master Mix (TOYOBO, Osaka, Japan). […] The primers for the mouse housekeeping gene glyceraldehyde-3-phosphate dehydrogenase ([…] was performed according to the following conditions: 94 °C for 3 min, 40 cycles of denaturation at 94 °C for 30 s, annealing at 56 °C for 45 s, extension at 72 °C for 30 s, followed by a final extension at 72 °C for 10 min. The quantified fold changes in messenger RNA (mRNA) in each sample were normalized to GAPDH expression and calculated using the 2exp (-ΔΔCt) method.

TNF-α [3] = assay: LPS-induced TNF-α production (ELISA); type: cell-based, mouse; details: pretreated 1 h, LPS 100 ng/mL 24 h
Protocol: (§4) Figure 5 Effects of TBIII (A) and t-HL (B) on LPS-induced production of pro-inflammatory cytokines in N9 microglial cells. Cells were pre-treated with TBIII and t-HL for 1 h and then stimulated with LPS (100 ng/mL) for 24 h. The protein levels of TNF-α and IL-6 determined by ELISA according to manufacturer′s instructions. PAR (10 μM) was used as a positive control. The data were obtained from three independent experiments and expressed as the means ± S.E.M. * p < 0.05, ** p < 0.01, *** p < 0.001 versus the LPS-treated group; ^## p < 0.01, ^### p < 0.001 versus the control group.
(§5) N9 cells were plated into 24-well plates (2 × 10^5 cells/well). After cells became adherent, they were pretreated with different concentrations of TBIII and t-HL for 1 h before stimulation with 100 ng/mL of LPS. The supernatants of cultured medium were collected and the production of TNF-α and IL-6 was measured after incubation for 24 h using an ELISA kit according to manufacturer′s instructions.

iNOS = iNOS expression by Western blot in LPS-stimulated N9 cells; type: cell-based, mouse; details: pretreated 1 h, LPS 100 ng/mL 24 h, dose-dependent
Protocol: Figure 3 Effects of TBIII (A) and t-HL (B) on the expression of iNOS induced by LPS in N9 microglial cells. The iNOS protein levels were analyzed by Western blot. Cells were treated with different concentrations of TBIII and t-HL for 1 h and then stimulated with LPS (100 ng/mL) for 24 h. The iNOS signal was normalized to the β-actin signal. Parthenolide (PAR, 10 μM) was used as a positive control. The data were obtained from three independent experiments and expressed as the means ± S.E.M. * p < 0.05, ** p < 0.01, *** p < 0.001 versus the LPS-treated group; ^### p < 0.001 versus the control group.
as §2

TNF-α [4] = assay: LPS-induced TNF-α mRNA expression (real-time PCR); type: cell-based, mouse; details: pretreated 1 h, LPS 100 ng/mL 4 h, dose-dependent
Protocol: as §3

neuronal injury = tested on: neuronal injury; design: method as in PMID 23287539; details: cited from earlier work
NF-κB = assay: LPS-induced activation of NF-κB (Western blot, nuclear p65); type: cell-based, mouse; details: pretreated 1 h, LPS 100 ng/mL
Protocol: as §1, §2

IL-6 [5] = assay: LPS-induced IL-6 production (ELISA); type: cell-based, mouse; details: pretreated 1 h, LPS 100 ng/mL 24 h
Protocol: as §4, §5

[6] = MTT assay for cell viability; details: mouse, N9 microglial cells, % Cell Viability, 24 h, MTT, mean ± S.E.M.; for viability at 24 h, 25 µM: 25 μM compound; for viability at 24 h, 50 µM: 50 μM compound
Protocol: as §6, §7

N9 microglial cells [7] = assay: MTT assay for cell viability
Protocol: as §6, §7

[8] = tested on: mouse model of postpartum depression; details: cited from earlier work
N9 microglial cells [9] = tested on: N9 microglial cells
Protocol: as §6, §7

[10] = tested on: various kinds of tumor cells; design: method as in PMID 15971131, PMID 28548219, PMID 29393481, PMID 27897231; details: cited from earlier work
[11] = 25 μM compound, LPS 100 ng/mL, 24 h
[12] = 50 μM compound, LPS 100 ng/mL, 24 h
[13] = Mus musculus, read-out: % Inhibition of NO Production, 25 μM compound, LPS 100 ng/mL, 24 h
[14] = Mus musculus, read-out: % Inhibition of NO Production, 50 μM compound, LPS 100 ng/mL, 24 h
[15] = Mus musculus, 25 μM compound, LPS 100 ng/mL, 24 h, read-out: % Inhibition of NO Production
[16] = Mus musculus, 50 μM compound, LPS 100 ng/mL, 24 h, read-out: % Inhibition of NO Production

## CC(CCC1(O)OC2CC3C4CCC5CC(OC6OC(CO)C(OC7OC(C)C(O)C(O)C7O)C(O)C6OC6OC(C)C(O)C(O)C6O)C(O)CC5(C)C4CCC3(C)C2C1C)COC1OC(CO)C(O)C(O)C1O (stereo not drawn) [Compound 8, Tuberoside G]
[1]; [11]
  Nitrite: 35.05 ± 0.68 µM
[1]; [12]
  Nitrite: 27.65 ± 0.74 µM
[1]; [13]
  inhibition at 25 µM: -10.8 ± 2.14%
[1]; [14]
  inhibition at 50 µM: 13.2 ± 2.32%
In vitro
  viability at 24 h, 25 µM: 113 ± 4.14%
  viability at 24 h, 50 µM: 99.3 ± 2.46%

## COC1(CCC(C)COC2OC(CO)C(O)C(O)C2O)OC2CC3C4CC=C5CC(O)CC(OC6OC(C)C(O)C(OC7OCC(O)C(O)C7O)C6OC6OC(CO)C(O)C(O)C6O)C5(C)C4CCC3(C)C2C1C (stereo not drawn) [Compound 9, Spicatoside B]
[1]; [11]
  Nitrite: 34.46 ± 0.41 µM
[1]; [12]
  Nitrite: 24.20 ± 0.29 µM
[1]; [13]
  inhibition at 25 µM: -8.22 ± 1.3%
[1]; [14]
  inhibition at 50 µM: 24 ± 0.9%
In vitro
  viability at 24 h, 25 µM: 99.7 ± 3.13%
  viability at 24 h, 50 µM: 94.3 ± 3.21%

## CC1=C(CCC(C)COC2OC(CO)C(O)C(O)C2O)OC2CC3C4CCC5CC(OC6OC(CO)C(O)C(O)C6OC6OC(CO)C(O)C(O)C6O)C(O)CC5(C)C4CCC3(C)C12 (stereo not drawn) [Compound 10, Timosaponin D]
[1]; [11]
  Nitrite: 29.22 ± 0.60 µM
[1]; [12]
  Nitrite: 20.78 ± 2.00 µM
[1]; [13]
  inhibition at 25 µM: 8.57 ± 1.87%
[1]; [14]
  inhibition at 50 µM: 34.8 ± 6.27%
In vitro
  viability at 24 h, 25 µM: 111 ± 4.39%
  viability at 24 h, 50 µM: 110 ± 2.57%

## C=CC(C=Cc1ccc(O)cc1)c1ccc(O)cc1 (stereo not drawn) [Compound 23, trans-Hinokiresinol]
Akt
  phosphorylation of Akt / PI3K/Akt signaling activation: not affected
IL-6 [2]
  IL-6 mRNA expression: significantly suppressed
TNF-α [3]
  TNF-α production (protein): significantly suppressed
iNOS
  iNOS protein expression: significantly attenuated
[1]; [11]
  Nitrite: 14.93 ± 0.41 µM
[1]; [12]
  Nitrite: 5.18 ± 0.06 µM
  % Inhibition of NO Production: 83.73 ± 0.22 %
[1]; [15]
  inhibition at 25 µM: > 50%
[1]; [16]
  inhibition at 50 µM: 83%
[1]; Mus musculus, N9, pretreated 1 h, LPS 100 ng/mL, 24 h, Griess reagent, read-out: IC50, inhibition of NO production
  IC50: 39.1 µM
TNF-α [4]
  TNF-α mRNA expression: significantly suppressed
Neuronal injury
  effect on neuronal injury: protective effect
NF-κB
  NF-κB signaling / p65 subunit into nuclei: significantly prevented
IL-6 [5]
  IL-6 production (protein): significantly suppressed
[6]
  viability at 24 h, 25 µM: 108 ± 4.39%
  viability at 24 h, 50 µM: 98.3 ± 11.6%
N9 microglial cells [7]; MTT
  cytotoxicity against N9 microglial cells (in words): non-cytotoxic

## CC1=C(CCC(C)COC2OC(CO)C(O)C(O)C2O)OC2CC3C4CCC5CC(OC6OC(CO)C(O)C(O)C6OC6OC(CO)C(O)C(O)C6O)CCC5(C)C4CCC3(C)C12 (stereo not drawn) [Compound 11, Timosaponin BIII]
Akt
  phosphorylation of Akt / PI3K/Akt signaling activation: attenuated
IL-6 [2]
  IL-6 mRNA expression: significantly suppressed
TNF-α [3]
  TNF-α production (protein): significantly suppressed
iNOS
  iNOS protein expression: significantly attenuated
[1]; [11]
  Nitrite: 8.55 ± 0.25 µM
[1]; [12]
  Nitrite: 4.24 ± 0.10 µM
  % Inhibition of NO Production: 86% and 86.67 ± 0.37 %
[8]
  antidepressive activity: antidepressive activity
TNF-α [4]
  TNF-α mRNA expression: significantly suppressed
N9 microglial cells [9]
  cytotoxicity against N9 microglial cells (in words): non-cytotoxic
N9 microglial cells [9]; mouse, 24 h, 50 µM
  % Cell Viability: 74.93 ± 3.15 %
NF-κB
  NF-κB signaling / p65 subunit into nuclei: no effect
In vitro
  viability at 24 h, 25 µM: 120 ± 11.8%
IL-6 [5]
  IL-6 production (protein): significantly suppressed

## C[C@@H]1O[C@@H](O[C@H]2[C@H](OC(=O)[C@]34CCC(C)(C)C[C@H]3C3=CC[C@@H]5[C@@]6(C)C[C@H](O)[C@H](O[C@@H]7O[C@H](CO)[C@@H](O)[C@H](O)[C@H]7O)C(CO)(CO)[C@@H]6CC[C@@]5(C)[C@]3(C)C[C@H]4O)OC[C@H](O)[C@@H]2O)[C@H](O)[C@H](O)[C@H]1O[C@@H]1OC[C@@H](O)[C@H](O[C@@H]2OC[C@](O)(CO)[C@H]2O)[C@H]1O [Compound 14, Platycodin D]
[1]; [11]
  Nitrite: 28.94 ± 0.40 µM
[1]; [12]
  Nitrite: 4.29 ± 0.59 µM
[1]; [15]
  inhibition at 25 µM: 8.65 ± 2.24%
[1]; [16]
  inhibition at 50 µM: 86.5 ± 2.71%
[10]
  cytotoxicity towards tumor cells: significant cytotoxicity
[6]
  viability at 24 h, 25 µM: 40.2 ± 9.18%
  viability at 24 h, 50 µM: 17.9 ± 1.99%
N9 microglial cells [7]; at 25 and 50 μM
  cell viability reduced to: ≤ 60%

## CCC1C(OC(=O)CCC(C)COC2OC(CO)C(O)C(O)C2O)CC2C3CCC4CC(OC5OC(CO)C(O)C(O)C5OC5OC(CO)C(O)C(O)C5O)CCC4(C)C3CCC12C (stereo not drawn) [Compound 19, Anemarnoside A]
[1]; [11]
  Nitrite: 23.63 ± 1.13 µM
[1]; [12]
  Nitrite: 9.83 ± 0.30 µM
[1]; [13]
  inhibition at 25 µM: 25.2 ± 8.72%
[1]; [14]
  inhibition at 50 µM: 66.9 ± 2.82%
In vitro
  viability at 24 h, 25 µM: 124 ± 3.13%
  viability at 24 h, 50 µM: 126 ± 3%
